From a melting point compilation (Tetko et al.; mined from patent text by program, amines drawn as free bases though some values may be those of a salt)

Row | melting point | SMILES
1 | 225 to 226 °C | Fc1ccc(Nc2nc(N/N=C/c3ccc4ccccc4c3)nc(N3CCOCC3)n2)cc1
2 | 151 to 159 °C | C=CCNc1c(CO)cnc2cn(C)nc12
3 | 182 to 185 °C | OC(Cc1nc[nH]n1)(Cc1nc[nH]n1)c1ccc(Cl)cc1Cl
4 | 177 to 179 °C | O=C1O[C@@H]2C[C@@]1(O)C=C(OCc1ccc3sccc3c1)[C@H]2O
5 | 83 to 85 °C | COC(=O)Cc1ccc2c(c1)C(C)(C)CCC2(C)C
6 | 264 to 266 °C | CC(C)=C(C(=O)O)c1cc(C(C)C)c(O)c2c(Cc3ccccc3)cccc12
7 | 94 to 95 °C | Cc1cc(SCc2ccc(-c3ccc(C(F)(F)F)cn3)cc2)c2c(c1OCC(=O)O)CCO2
8 | 132 to 133 °C | COc1ccc(C=C2CCc3cc(OCCn4ccnc4)ccc3C2=O)cc1
9 | 134 °C | O=C(O)c1ccc(Cl)c(S(=O)(=O)NC2CCCCCCC2)c1
10 | 192 to 195 °C | CC(C)n1cc(-c2ccc(NC(=O)c3ccccc3)cc2)c2c(N)ncnc21
11 | 125 to 126 °C | OCCCC#Cc1ccc(C(=C2CCCCCC2)c2ccc(O)cc2)cc1
12 | 107 to 108 °C | O=C(O)c1cc(COC2CCCCO2)ccc1COC1CCCCO1 (centres undefined)
13 | 154 to 156 °C | O=C(NC1(CO)NCC(O)C(O)C1O)c1ccccc1 (centres undefined)
14 | 104 to 105 °C | Cc1oc(-c2ccccc2)nc1COc1ccc(CCC(C(=O)O)c2c[nH]nc2-c2ccccc2)cc1 (centres undefined)
15 | 168 to 170 °C | CCOC(=O)c1c2ccc(CC(=O)NOCC(=O)N3CCCC3)ccc-2c(C(=O)OCC)c1N
16 | 176 to 178 °C | O=S(=O)(c1ccccc1)c1c[nH]c2ccc(Br)cc12
17 | 320 to 323 °C | Cc1cc2c3c(cc(Br)cc3c1Br)C(=O)N(O)C2=O
18 | 290 °C | N#CC(=Cc1ccc(O)c(O)c1)C(=O)Nc1ccc(Cl)cc1
19 | 288 °C | CC1SC(=O)NN=C1c1ccc2c(c1)C(C)(C)CC(=O)N2 (centres undefined)
20 | 50 to 54 °C | NCC(O)COCCCCCCCCc1ccccc1 (centres undefined)

Row | melting point | SMILES
21 | 290 to 291 °C | CC1(C)CN(c2ncc(C(=O)O)c(N)n2)C(=O)N1
22 | 146 to 147 °C | CS(=O)(=O)c1ccc(-c2[nH]nc(C(CCCO[N+](=O)[O-])=NO)c2-c2ccc(C#N)cc2)cc1
23 | 234 to 236 °C | CCCOc1ccc(F)c2c(=O)c(-c3ccc(C(=O)N4CCOCC4)cc3)c[nH]c12
24 | 179 °C | COc1cccc(N(CC(=O)N(C)c2ccccc2)C(=O)CNC(=O)Nc2cccc(C)c2)c1
25 | 164 to 165 °C | C=CCN(C(=O)Nc1cc(C)c(S(=O)(=O)C[N+](=O)[O-])c(C)c1)c1ccccc1
26 | 95 to 99 °C | CC(CC(=O)N1CCCC1)Sc1cc(C(C)(C)C)c(O)c(C(C)(C)C)c1 (centres undefined)
27 | 86 to 88 °C | CCN(CC)CCC(=O)Nc1ccc([N+](=O)[O-])cc1
28 | 81 to 82 °C | CC(=O)c1ccc(Nc2ccccc2C(C)=C(Cl)Cl)cc1
29 | 202 to 204 °C | CCCOCCOc1ccc(-c2ccc3c(c2)C=C(C(=O)O)CCCN3CCC)cc1
30 | 136 to 137 °C | COc1ccc(S(=O)(=O)n2ccc3ccnc(-c4ccc(F)cc4)c32)cc1
31 | 159 to 160 °C | COc1ccc(-c2cc(F)c(F)cc2-c2ccc(S(C)(=O)=O)cc2)cc1F
32 | 231 to 234 °C | CNC(=O)c1cc(Oc2ccc(NC(=O)Nc3ccc4c(cnn4C)c3)c(F)c2)ccn1
33 | 175 °C | c1ccc(CN2CCN(c3ccnc4[nH]ccc34)CC2)cc1
34 | 229 to 232 °C | Oc1ccc2c(c1)COc1c-2cc2ccc(O)cc2c1-c1ccc(F)cc1
35 | 116 to 118 °C | CC(C)C[C@H](NC(=O)CCC1CCCCC1)C(=O)N[C@@H](Cc1ccccc1)C(=O)CSCc1ccco1
36 | 83 to 85 °C | CCOC(=O)CCC(=O)c1ccc(CCNS(=O)(=O)c2cccc(C(F)(F)F)c2)cc1
37 | 95.5 to 98 °C | COc1ccccc1NCN1CCOC1=O
38 | 260 to 264 °C | COc1ccccc1N(C(N)=O)c1ccc(CC(=O)O)cc1C
39 | 284 to 285 °C | COc1ccc(-c2nc3ccc(C(=O)O)cc3nc2-c2ccc(OC)cc2)cc1
